Some test systems named below: HOP-62; HL-60; LXFL 529; A498; SK-MEL-5; RPMI-8226; COLO 205; OVCAR-3; T47D; NCI-H522; Malme-3M; UACC-62; A549; SK-MEL-2; NCI-H226; HOP-92; Hs-578T; HCT-116; SN12C; OVCAR-5.
Holding throughout (test): NCI tumour cell line growth inhibition, 48 h

This note sets out measurements from ChEMBL document CHEMBL1201862, “PubChem BioAssay data set” (2004).

Each structure is given as a SMILES string.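 Protocol summary: plate cells (96-well), add compound at 5 concentrations, incubate 48 h, interpolate endpoints linearly. GI50 marks 50% less growth.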 The source made the active and inactive calls. Rule as the data show it: active = GI50 up to about 1.1 µM and inactive = higher. Bounds are passed on as bounds.

Take `CCc1ccc(/C=C\c2cc(OC)c(OC)c(OC)c2)cc1`: the GI50 with HOP-62 was 0.0531 µM (active); in the test on HL-60, 0.0053 µM (active); in the test on LXFL 529, 0.211 µM (active); in the test with A498 it was 0.014 µM (active); with SK-MEL-5, 0.0181 µM (active); in the test on RPMI-8226 it was 0.0127 µM (active). For the same compound, the GI50 in the test with COLO 205 was 0.0122 µM (active); in the test with OVCAR-3, 0.00843 µM (active); in the test on T47D, 0.17 µM (active); in the test with NCI-H522 it was 0.0118 µM (active); with Malme-3M it was 0.124 µM (active); in the test on UACC-62 it was 0.0132 µM (active). Moreover, the GI50 is 0.0223 µM (active) with A549; 0.112 µM (active) in the test with SK-MEL-2; 0.024 µM (active) in the test on NCI-H226; 0.00813 µM (active) in the test on HOP-92; 0.00255 µM (active) in the test on Hs-578T; 0.0107 µM (active) with HCT-116. The results for the GI50 with SN12C and in the test with OVCAR-5 were 0.0159 µM (active) and 0.391 µM (active), respectively.

As for `O=[As]O`, the GI50 in the test with HOP-62 was > 100 µM (inactive); in the test on HL-60, 9.82 µM (inactive); in the test on LXFL 529, 16.2 µM (inactive); with A498, > 74.6 µM (inactive); in the test with SK-MEL-5, 32.4 µM (inactive); with RPMI-8226, > 40.5 µM (inactive). The GI50 with COLO 205 is > 90.6 µM (inactive); in the test with OVCAR-3 it was > 45.7 µM (inactive); in the test with T47D it was > 100 µM (inactive); in the test with NCI-H522 it was 22.8 µM (inactive); with Malme-3M, 25.3 µM (inactive); in the test with UACC-62, > 39.1 µM (inactive). For the same compound, the GI50 was > 100 µM (inactive) with A549; > 59.6 µM (inactive) in the test with SK-MEL-2; > 48.3 µM (inactive) in the test on NCI-H226; > 41.6 µM (inactive) with HOP-92; > 100 µM (inactive) with Hs-578T; > 93.3 µM (inactive) in the test on HCT-116. Besides, the GI50 with SN12C is > 48.4 µM (inactive); in the test on OVCAR-5 it was > 100 µM (inactive).
